According to the OligoGym collection:
Oligonucleotides are written 5' to 3', each unit as a sugar letter and its base; * is a phosphorothioate linkage, no mark a phosphodiester; rarer units and linkages stand in square brackets, end groups in braces. Plain capitals give the bases only. d = 2'-deoxy (DNA); r = 2'-OH (RNA)

Biological target: UBE2C
Assay: reporter assay of Huesken 2005
Settings: siRNA
Further: test concentration or dose not given here.

**Q.** Which normalised inhibition (eCFP-eYFP dual reporter) does the source give for “sense rUrCrCrUrGrArArGrGrArArArArGrUrGrGrUrCdTdT / antisense rGrArCrCrArCrUrUrUrUrCrCrUrUrCrArGrGrAdTdG” here?
**A.** The normalised inhibition (eCFP-eYFP dual reporter) was 71.8%.

**Q.** For “sense rArGrUrArUrArUrGrArArGrArCrCrUrGrArGrGdTdT / antisense rCrCrUrCrArGrGrUrCrUrUrCrArUrArUrArCrUdGdT”, which normalised inhibition (eCFP-eYFP dual reporter) is on record?
**A.** Its normalised inhibition (eCFP-eYFP dual reporter) is 77.2%.

**Q.** With “sense rArCrArGrUrArUrArUrGrArArGrArCrCrUrGrAdTdT / antisense rUrCrArGrGrUrCrUrUrCrArUrArUrArCrUrGrUdTdC” as the substance, how does the normalised inhibition (eCFP-eYFP dual reporter) read?
**A.** Its normalised inhibition (eCFP-eYFP dual reporter) is 88.1%.

**Q.** “sense rGrArArCrArGrUrArUrArUrGrArArGrArCrCrUdTdT / antisense rArGrGrUrCrUrUrCrArUrArUrArCrUrGrUrUrCdCdA” was tested. Which normalised inhibition (eCFP-eYFP dual reporter) did it give?
**A.** Its normalised inhibition (eCFP-eYFP dual reporter) is 86.9%.

**Q.** How did the normalised inhibition (eCFP-eYFP dual reporter) turn out when “sense rGrCrGrCrCrCrArCrArGrUrGrArArGrUrUrCrCdTdT / antisense rGrGrArArCrUrUrCrArCrUrGrUrGrGrGrCrGrCdAdT” was run?
**A.** Its normalised inhibition (eCFP-eYFP dual reporter) is 70.9%.

**Q.** Which normalised inhibition (eCFP-eYFP dual reporter) does the source give for “sense rGrArArGrGrArArArArGrUrGrGrUrCrUrGrCrCdTdT / antisense rGrGrCrArGrArCrCrArCrUrUrUrUrCrCrUrUrCdAdG” here?
**A.** Its normalised inhibition (eCFP-eYFP dual reporter) is 63.3%.

**Q.** With “sense rUrCrUrArGrGrArGrArArCrCrCrArArCrArUrUdTdT / antisense rArArUrGrUrUrGrGrGrUrUrCrUrCrCrUrArGrAdAdG” as the substance, how does the normalised inhibition (eCFP-eYFP dual reporter) read?
**A.** The normalised inhibition (eCFP-eYFP dual reporter) was 88.8%.

**Q.** “sense rGrGrUrArUrArArGrCrUrCrUrCrGrCrUrArGrAdTdT / antisense rUrCrUrArGrCrGrArGrArGrCrUrUrArUrArCrCdTdC” was tested. Which normalised inhibition (eCFP-eYFP dual reporter) did it give?
**A.** The normalised inhibition (eCFP-eYFP dual reporter) was 91.3%.

**Q.** With “sense rGrArArGrUrUrCrCrUrCrArCrGrCrCrCrUrGrCdTdT / antisense rGrCrArGrGrGrCrGrUrGrArGrGrArArCrUrUrCdAdC” as the substance, how does the normalised inhibition (eCFP-eYFP dual reporter) read?
**A.** The normalised inhibition (eCFP-eYFP dual reporter) was 40.9%.

**Q.** Which normalised inhibition (eCFP-eYFP dual reporter) does the source give for “sense rCrArGrArGrCrCrUrUrCrUrArGrGrArGrArArCdTdT / antisense rGrUrUrCrUrCrCrUrArGrArArGrGrCrUrCrUrGdGdA” here?
**A.** The normalised inhibition (eCFP-eYFP dual reporter) was 75.5%.

**Q.** For “sense rUrArUrGrArUrGrUrCrArGrGrArCrCrArUrUrCdTdT / antisense rGrArArUrGrGrUrCrCrUrGrArCrArUrCrArUrAdCdA”, which normalised inhibition (eCFP-eYFP dual reporter) is on record?
**A.** Its normalised inhibition (eCFP-eYFP dual reporter) is 32.1%.

**Q.** “sense rArGrUrGrGrCrUrArCrCrCrUrUrArCrArArUrGdTdT / antisense rCrArUrUrGrUrArArGrGrGrUrArGrCrCrArCrUdGdG” was tested. Which normalised inhibition (eCFP-eYFP dual reporter) did it give?
**A.** Its normalised inhibition (eCFP-eYFP dual reporter) is 76.9%.

**Q.** Which normalised inhibition (eCFP-eYFP dual reporter) does the source give for “sense rArArCrArUrUrGrArUrArGrUrCrCrCrUrUrGrAdTdT / antisense rUrCrArArGrGrGrArCrUrArUrCrArArUrGrUrUdGdG” here?
**A.** The normalised inhibition (eCFP-eYFP dual reporter) was 93.1%.

**Q.** Which normalised inhibition (eCFP-eYFP dual reporter) does the source give for “sense rArUrGrGrArGrCrArGrCrUrGrGrArArCrArGrUdTdT / antisense rArCrUrGrUrUrCrCrArGrCrUrGrCrUrCrCrArUdGdG” here?
**A.** Its normalised inhibition (eCFP-eYFP dual reporter) is 84.5%.

**Q.** For “sense rArArGrArCrCrUrGrArGrGrUrArUrArArGrCrUdTdT / antisense rArGrCrUrUrArUrArCrCrUrCrArGrGrUrCrUrUdCdA”, which normalised inhibition (eCFP-eYFP dual reporter) is on record?
**A.** Its normalised inhibition (eCFP-eYFP dual reporter) is 46.4%.

**Q.** Which normalised inhibition (eCFP-eYFP dual reporter) does the source give for “sense rGrArUrGrUrCrArGrGrArCrCrArUrUrCrUrGrCdTdT / antisense rGrCrArGrArArUrGrGrUrCrCrUrGrArCrArUrCdAdT” here?
**A.** Its normalised inhibition (eCFP-eYFP dual reporter) is 48.8%.

**Q.** For “sense rArCrArCrArCrArUrGrCrUrGrCrCrGrArGrCrUdTdT / antisense rArGrCrUrCrGrGrCrArGrCrArUrGrUrGrUrGrUdTdC”, which normalised inhibition (eCFP-eYFP dual reporter) is on record?
**A.** The normalised inhibition (eCFP-eYFP dual reporter) was 78%.

**Q.** Which normalised inhibition (eCFP-eYFP dual reporter) does the source give for “sense rUrGrArGrGrUrArUrArArGrCrUrCrUrCrGrCrUdTdT / antisense rArGrCrGrArGrArGrCrUrUrArUrArCrCrUrCrAdGdG” here?
**A.** The normalised inhibition (eCFP-eYFP dual reporter) was 80.6%.

**Q.** How did the normalised inhibition (eCFP-eYFP dual reporter) turn out when “sense rArGrArCrCrUrGrArGrGrUrArUrArArGrCrUrCdTdT / antisense rGrArGrCrUrUrArUrArCrCrUrCrArGrGrUrCrUdTdC” was run?
**A.** Its normalised inhibition (eCFP-eYFP dual reporter) is 71.7%.

**Q.** With “sense rUrGrGrUrCrUrGrCrCrCrUrGrUrArUrGrArUrGdTdT / antisense rCrArUrCrArUrArCrArGrGrGrCrArGrArCrCrAdCdT” as the substance, how does the normalised inhibition (eCFP-eYFP dual reporter) read?
**A.** The normalised inhibition (eCFP-eYFP dual reporter) was 28.6%.

**Q.** For “sense rCrCrArUrCrCrArUrGrGrArGrCrArGrCrUrGrGdTdT / antisense rCrCrArGrCrUrGrCrUrCrCrArUrGrGrArUrGrGdTdC”, which normalised inhibition (eCFP-eYFP dual reporter) is on record?
**A.** Its normalised inhibition (eCFP-eYFP dual reporter) is 80.7%.

**Q.** For “sense rUrArGrUrCrCrCrUrUrGrArArCrArCrArCrArUdTdT / antisense rArUrGrUrGrUrGrUrUrCrArArGrGrGrArCrUrAdTdC”, which normalised inhibition (eCFP-eYFP dual reporter) is on record?
**A.** Its normalised inhibition (eCFP-eYFP dual reporter) is 76.1%.

**Q.** “sense rCrUrCrCrArUrCrCrArGrArGrCrCrUrUrCrUrAdTdT / antisense rUrArGrArArGrGrCrUrCrUrGrGrArUrGrGrArGdAdG” was tested. Which normalised inhibition (eCFP-eYFP dual reporter) did it give?
**A.** The normalised inhibition (eCFP-eYFP dual reporter) was 81.9%.

**Q.** For “sense rCrUrArUrCrArCrCrCrCrArArCrGrUrGrGrArCdTdT / antisense rGrUrCrCrArCrGrUrUrGrGrGrGrUrGrArUrArGdCdA”, which normalised inhibition (eCFP-eYFP dual reporter) is on record?
**A.** Its normalised inhibition (eCFP-eYFP dual reporter) is 77.2%.

**Q.** How did the normalised inhibition (eCFP-eYFP dual reporter) turn out when “sense rGrUrGrGrCrUrArCrCrCrUrUrArCrArArUrGrCdTdT / antisense rGrCrArUrUrGrUrArArGrGrGrUrArGrCrCrArCdTdG” was run?
**A.** The normalised inhibition (eCFP-eYFP dual reporter) was 87.8%.

**Q.** Which normalised inhibition (eCFP-eYFP dual reporter) does the source give for “sense rCrArCrCrCrCrArArCrGrUrGrGrArCrArCrCrCdTdT / antisense rGrGrGrUrGrUrCrCrArCrGrUrUrGrGrGrGrUrGdAdT” here?
**A.** The normalised inhibition (eCFP-eYFP dual reporter) was 11.6%.
